# According to article PMC3135787 (Antiviral research, 2011):
# Like-named read-outs stand apart in the source and are kept apart here.
# What was measured:
# [1] = system: genotype 1a H77 subgenomic replicon; assay: HCV replicon assay, genotype 1a H77; type: cell-based; conditions: GT1a_H77 replicon, four days
# [2] = system: genotype 1b replicon (Con1 strain); assay: HCV replicon assay, genotype 1b Con1; type: cell-based; conditions: GT1b_Con1 replicon, four days (96 h)
# [3] = system: genotype 2a J6/JFH-1 subgenomic replicon; assay: HCV replicon assay, genotype 2a J6/JFH-1; type: cell-based; conditions: GT2a_JFH-1 replicon, four days
# [4] = system: primary human hepatocytes; assay: Metabolism of [3H]-PSI-353661 in primary human hepatocytes; type: in vitro ADME; conditions: continuous exposure to 5 μM [3H]-PSI-353661
# [5] = system: genotype 1b ET replicon, wild type; type: cell-based, HCV; conditions: read-out: EC90 WT replicon; wild-type ET replicon, luciferase-based assay
# [6] = system: ET replicon with NS5B S96T/N142T; assay: microbe, parasite or virus in culture; type: cell-based, HCV; conditions: for EC90 fold change: S96T/N142T mutant EC90 normalised to wild-type; for EC90: read-out: EC90 Mutant replicon
# [7] = system: Clone A wild type replicon; assay: Cross resistance: Clone A wild type replicon, RT-PCR; type: cell-based, HCV; conditions: read-out: EC90 WT replicon
# [8] = system: Clone A replicon with NS5B S282T; assay: microbe, parasite or virus in culture; type: cell-based, HCV; conditions: for EC90 fold change: S282T mutant EC90 normalised to wild-type; for EC90: read-out: EC90 Mutant replicon
# [9] = target: T1, recombinant human ADAL1 (Homo sapiens, UniProt Q6DHV7); assay: ADAL1-mediated demethylation assay; type: biochemical; conditions: ADAL1, pH 6.7, 37°C
# T1 sequence (Q6DHV7 1-355): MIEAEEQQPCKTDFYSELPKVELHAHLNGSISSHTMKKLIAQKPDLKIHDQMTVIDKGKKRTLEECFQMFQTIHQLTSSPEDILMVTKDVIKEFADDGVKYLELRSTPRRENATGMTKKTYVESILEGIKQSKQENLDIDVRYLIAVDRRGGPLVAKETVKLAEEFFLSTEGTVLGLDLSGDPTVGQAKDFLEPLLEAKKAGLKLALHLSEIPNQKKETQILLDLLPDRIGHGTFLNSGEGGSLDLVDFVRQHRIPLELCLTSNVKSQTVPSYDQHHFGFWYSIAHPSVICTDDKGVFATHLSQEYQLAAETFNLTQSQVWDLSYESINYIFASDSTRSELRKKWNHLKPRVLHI
# [10] = target: T2, Human guanylate kinase (hGUK1) (Homo sapiens, UniProt Q16774); assay: hGUK1-mediated phosphorylation, coupled spectrophotometric assay; type: biochemical
# T2 sequence (Q16774 1-197): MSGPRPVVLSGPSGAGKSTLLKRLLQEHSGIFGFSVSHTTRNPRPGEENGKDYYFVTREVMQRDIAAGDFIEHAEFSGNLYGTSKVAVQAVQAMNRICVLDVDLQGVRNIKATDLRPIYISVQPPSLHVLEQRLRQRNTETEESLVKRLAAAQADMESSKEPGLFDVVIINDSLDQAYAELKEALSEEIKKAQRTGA
# [11] = system: ET replicon with NS5B M423T; type: cell-based, HCV
# [12] = system: HepG2 cells; assay: Mitochondrial COXII DNA and ribosomal DNA by real time PCR, HepG2; type: cell-based, human; conditions: HepG2 cells, 0.5 μM (lowest concentration tested), 14 days
# [13] = system: mitochondrial COXII DNA (mtDNA); assay: as above; type: cell-based, human; conditions: human
# [14] = system: ribosomal DNA (rDNA); assay: as above; type: cell-based, human; conditions: human, HepG2 cells
# [15] = system: CEM cells; assay: Mitochondrial COXII DNA and ribosomal DNA by real time PCR, CEM; type: cell-based, human; conditions: CEM cells, 0.5 μM (lowest concentration tested), 14 days
# [16] = system: mitochondrial COXII DNA (mtDNA); assay: as above; type: cell-based, human; conditions: human
# [17] = system: ribosomal DNA (rDNA); assay: as above; type: cell-based, human; conditions: human, CEM cells
# [18] = system: CEM cells; assay: Lactic acid production, CEM; conditions: 7 days, normalised to rDNA
# [19] = system: HepG2 cells; assay: Lactic acid production, HepG2; conditions: 7 days, normalised to rDNA
structure (smiles),measurement,setting,value
"C[C@@]1(F)[C@H](O)[C@@H](CO)O[C@H]1n1cnc2c(=O)[nH]c(N)nc21 [PSI-6567, 2′-F-2′-C-methylguanosine]",EC50,[1],19 ± 8.6 µM
same,EC90,[1],53.4 ± 12.8 µM
same,EC50,[2],22 ± 7.7 µM
same,EC90,[2],69.2 ± 19.3 µM
same,EC50,[3],38.3 ± 18.6 µM
same,EC90,[3],60 ± 14.8 µM
same,time to maximum intracellular concentration,[4],0.5 to 1 h
CC(C)OC(=O)[C@H](C)NP(=O)(OC[C@H]1O[C@@H](n2ccc(=O)[nH]c2=O)[C@](C)(F)[C@@H]1O)Oc1ccccc1 (stereo partly shown) [PSI-7851],EC90,[5],0.43 ± 0.23 µM
same,EC90 fold change,[6],0.9
same,EC90,"[6]; S96T/N142T, luciferase-based assay",0.39 ± 0.19 µM
same,EC90,"[7]; Clone A wild type replicon, RT-PCR assay",0.44 ± 0.21 µM
same,EC90 fold change,[8],16.7
same,EC90,"[8]; S282T, RT-PCR assay",7.36 ± 1.02 µM
"COc1nc(N)nc2c1ncn2[C@@H]1O[C@H](CO)[C@@H](O)[C@@]1(C)F [PSI-352878, (2R,3R,4R,5R)-5-(2-amino-6-methoxy-purin-9-yl)-4-fluoro-2-hydroxymethyl-4-methyl-tetrahydro-furan-3-ol]",time to maximum intracellular concentration,[4],0.5 to 1 h
"COc1nc(N)nc2c1ncn2[C@@H]1O[C@H](COP(=O)(O)N[C@@H](C)C(=O)O)[C@@H](O)[C@@]1(C)F [PSI-353131, (S)-2-{[(2R,3R,4R,5R)-5-(2-amino-6-methoxy-purin-9-yl)-4-fluoro-3-hydroxy-4-methyl-tetrahydro-furan-2-ylmethoxy]-hydroxy-phosphorylamino}-propionic acid]",time to maximum intracellular concentration,[4],0.25 h
same,Km,[9],No activity
same,kcat,[9],No activity
same,kcat / Km,[9],No activity
"C[C@@]1(F)[C@H](O)[C@@H](COP(=O)(O)O)O[C@H]1n1cnc2c(=O)[nH]c(N)nc21 [PSI-353222, 2′-deoxy-2-α-fluoro-2-β-C-methylguanosine-5′-monophosphate]",time to maximum intracellular concentration,[4],1 to 2 h
same,Km compared to GMP (fold weaker),[10]; hGUK1,3.4 fold
same,kcat compared to GMP (fold lower),[10]; hGUK1,approximately 240 fold
same,Km,"[10]; hGUK1, 37°C",64.9 ± 1.6 µM
same,kcat,"[10]; hGUK1, 37°C",0.31 ± 0.03 s⁻¹
"COc1nc(N)nc2c1ncn2[C@@H]1O[C@H](COP(=O)(O)O)[C@@H](O)[C@@]1(C)F [PSI-353224, 2-amino-6-methoxypurine 2′-deoxy-2′-α-fluoro-2-β-C-methylribose-5′-monophosphate]",time to maximum intracellular concentration,[4],0.5 to 1 h
same,Km,[9],9 ± 2.1 µM
same,kcat,[9],5.84 ± 0.40 s⁻¹
same,activity as substrate,"[10]; hGUK1, 500 μM, the highest concentration tested",No activity
same,Km,"[10]; hGUK1, 37°C",No activity
same,kcat,"[10]; hGUK1, 37°C",No activity
same,kcat / Km,"[10]; hGUK1, 37°C",No activity
"[N-]=[N+]=N[C@]1(CO)O[C@@H](n2ccc(N)nc2=O)[C@H](O)[C@@H]1O [R1479, 4′-azidocytidine]",EC90,[6]; Hepatitis C virus,74.1 ± 12.1 µM
same,EC90 fold change,[6],4.7
same,EC90,[7]; Hepatitis C virus,22.4 ± 4.58 µM
same,EC90,[8]; Hepatitis C virus,12.5 ± 3.78 µM
same,EC90 fold change,[8],0.6
"CC(C)N(c1cc(-c2ccccc2)sc1C(=O)O)C(=O)[C@H]1CC[C@H](C)CC1 [Thiophene, 3-((1r,4r)-N-isopropyl-4-methylcyclohexanecarboxamido)-5-phenylthiophene-2-carboxylic acid, reference compound]",EC90,[5],3.65 ± 0.21 µM
same,EC90 fold change,[11]; M423T mutant EC90 normalised to wild-type,19.1
same,EC90,"[11]; read-out: EC90 Mutant replicon, M423T, luciferase-based assay",69.5 ± 9.24 µM
"Nc1ccn([C@H]2CC[C@@H](CO)O2)c(=O)n1 [ddC, 2′,3′-dideoxycytidine]",reduction of mitochondrial DNA levels,[12],more than one log10
same,CC90 at 14 days,[13],< 0.5 µM
same,CC90 at 14 days,[14],12.9 ± 9.1 µM
same,reduction of mitochondrial DNA levels,[15],more than one log10
same,CC90 at 14 days,[16],< 0.5 µM
same,CC90 at 14 days,[17],22.9 ± 11.9 µM
same,Lactic acid (Fold change from untreated cells),[18]; 0.1 μM,0.9 ± 0.3
same,Lactic acid (Fold change from untreated cells),[18]; 1.0 μM,2.2 ± 0.81
same,Lactic acid (Fold change from untreated cells),[18]; 10 μM,4.2 ±1.0
same,Lactic acid (Fold change from untreated cells),[18]; 50 μM,Toxic
same,Lactic acid (Fold change from untreated cells),[19]; 0.1 μM,1.6 ± 0.68
same,Lactic acid (Fold change from untreated cells),[19]; 1.0 μM,1.4 ± 0.12
same,Lactic acid (Fold change from untreated cells),[19]; 10 μM,3.9 ± 0.93
same,Lactic acid (Fold change from untreated cells),[19]; 50 μM,Toxic.
